For data set [1], the system named is BJ. The experiment in a line: cytotoxicity toward Ras-transformed BJeLR fibroblasts, dose response, cell-based, alamar blue fluorescence, cherrypicked samples (AID 2631).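 Note: confirmatory dose-response assay in RAS-dependent BJ fibroblasts engineered with TERT, LT and ST, with cytotoxicity read by fluorescence.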 The note with it: Homo sapiens. The data set is classed as functional.
Data set [2] deals with BJ. Briefly: cytotoxicity toward BJ-TERT-LT-ST fibroblasts, dose response, cell-based, RAS-independent, luminescence (AID 1935).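 Note: BJ fibroblasts immortalized with TERT plus LT and ST oncogenes.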 The data set is classed as functional. The settings on record: Homo sapiens.
A short description of data set [3]: cytotoxicity in MIN6 insulinoma cells, dose response, cytotoxicity control, cell-based, mouse insulinoma (AID 2122).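 Note: confirmatory high-throughput counterscreen run to flag cytotoxic compounds; mouse MIN-6 beta cells carrying an insulin promoter eGFP reporter.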 It counts as functional.
The nature of data set [4]: cytotoxicity toward DRD oncogenic fibroblasts, dose response, cell-based, non-viral oncogenic, luminescence (AID 1934). It counts as functional. The note with it: Homo sapiens.
The subject of data set [5] is BJ. The experiment in a line: cells. It counts as functional, cell-based. The note with it: Homo sapiens.
The subject of data set [6] is BJ. The experiment in a line: cytotoxicity toward BJ-TERT fibroblasts, dose response, cell-based, RAS-independent, luminescence (AID 1933). The data set is classed as functional. The settings on record: Homo sapiens.
The nature of data set [7]: insulin promoter down-regulators in MIN6 cells, imaging, high-content screening, mouse beta cells (AID 1628). The data set is classed as functional.
Data set [8] concerns the target T1, Cytochrome P450 2D6 (Homo sapiens, UniProt P10635).
Data set [9] concerns the target T1, Cytochrome P450 2D6. The source holds these as a separate data set.
Data set [10] can be described thus: cytotoxicity in HEK-293T cells, dose response, cytotoxicity control for BCR NF-kB inhibitor project, luminescence, B-cell screen hits (AID 489021).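 Note: HEK-293T cells carrying an NF-kB luciferase reporter; cells exposed to compound for about 14 hours before viability readout.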 It counts as functional, cell-based.
Another data set deals with Troponin, cardiac muscle (Homo sapiens, UniProt P19429+P45379+P63316). The experiment in a line: Fluorescence-based biochemical high throughput dose response assay for activators of the calcium sensitivity of cardiac Regulated Thin Filaments (RTF). [Related pubchem assays (depositor defined):AID493008, AID493018, AID504382, AID504383]. The data set is classed as protein-complex assay.

In data set [11] the target is DNA dC->dU-editing enzyme APOBEC-3A (Homo sapiens, UniProt P31941). The experiment in a line: APOBEC3A DNA deaminase inhibitors, dose response, biochemical (AID 504722). It counts as functional.
The target in data set [12] is T2, Mannose-6-phosphate isomerase (Homo sapiens, UniProt P34949).
T2 sequence (P34949 whole entry): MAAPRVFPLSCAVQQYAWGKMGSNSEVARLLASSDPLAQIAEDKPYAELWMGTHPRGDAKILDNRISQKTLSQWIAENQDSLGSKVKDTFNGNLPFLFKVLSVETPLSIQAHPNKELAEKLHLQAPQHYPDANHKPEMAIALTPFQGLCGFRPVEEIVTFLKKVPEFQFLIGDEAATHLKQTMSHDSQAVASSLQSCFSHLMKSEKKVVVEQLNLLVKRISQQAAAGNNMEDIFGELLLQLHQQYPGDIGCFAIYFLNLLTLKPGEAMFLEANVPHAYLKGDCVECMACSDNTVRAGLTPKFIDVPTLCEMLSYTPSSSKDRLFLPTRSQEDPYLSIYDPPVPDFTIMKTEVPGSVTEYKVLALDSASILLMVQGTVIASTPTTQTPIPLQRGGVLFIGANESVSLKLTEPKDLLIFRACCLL
Briefly: inhibitors of human PMI, primary screen, biochemical, fluorescence intensity, coupled assay (AID 1209).

In data set [13] the target is T3, Voltage-gated N-type calcium channel alpha-1B subunit/Amyloid beta A4 precursor protein-binding family A member 1 (Homo sapiens, UniProt Q00975+Q02410). It counts as protein assay.
Data set [14] deals with Eukaryotic translation initiation factor 4E (Mus musculus, UniProt P63073). Briefly: eIF4E–eIF4G protein interaction inhibitors, dose response, biochemical, TR-FRET (AID 855).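 Note: potency for disrupting eIF4E binding to eIF4GI seen as loss of FRET.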 It counts as functional.
In data set [15] the target is DNA dC->dU-editing enzyme APOBEC-3G (Homo sapiens, UniProt Q9HC16). Briefly: Dose Response confirmation of small molecule APOBEC3G DNA Deaminase Inhibitors via a fluorescence-based single-stranded DNA deaminase assay. [Related pubchem assays (depositor defined):AID493012, AID493028]. It counts as functional.
Data set [16] addresses T3, Voltage-gated N-type calcium channel alpha-1B subunit/Amyloid beta A4 precursor protein-binding family A member 1. It counts as protein assay. This is another data set of the same source.
Data set [17] can be described thus: THP-1 cell cytotoxicity, dose response, cytotoxicity control for non-replicating M. tuberculosis project (AID 489025). It counts as functional.
The nature of a further data set: cells. It counts as functional.
The target in data set [18] is G-protein coupled receptor 35 (Homo sapiens, UniProt Q9HC97). The experiment in a line: GPR35 antagonists blocking zaprinast-driven arrestin recruitment, primary screen, imaging, U2OS, beta-arrestin-GFP, zaprinast agonist (AID 2058).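 Note: antagonist potency meaning inhibition of agonist-induced arrestin redistribution.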 The data set is classed as functional.
The target of data set [19] is T4, Mitochondrial peptide methionine sulfoxide reductase (Bos taurus, UniProt P54149).
T4 sequence (P54149 whole entry): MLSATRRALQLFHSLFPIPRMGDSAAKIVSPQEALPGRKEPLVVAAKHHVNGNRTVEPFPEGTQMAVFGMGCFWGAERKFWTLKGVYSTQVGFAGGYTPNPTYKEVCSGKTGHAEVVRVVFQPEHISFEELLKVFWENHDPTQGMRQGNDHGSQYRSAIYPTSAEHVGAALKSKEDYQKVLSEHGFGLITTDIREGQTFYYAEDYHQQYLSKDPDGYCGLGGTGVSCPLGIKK
Briefly: Absorbance-based biochemical high throughput dose response assay for activators of Methionine sulfoxide reductase A (MsrA). The data set is classed as functional.

The next data set has as its target Exodeoxyribonuclease V (Escherichia coli (strain K12), UniProt P04993+P07648+P08394). The experiment in a line: E. coli RecBCD inhibitors, dose response, counter-screen for AddAB inhibitor project, absorbance, V66 E. coli, mutant T4 phage (AID 492957). It counts as functional, cell-based, Escherichia coli str. K-12 substr. MG1655.
A short description of data set [20]: Counterscreen for AddAB inhibitors: absorbance-based bacterial cell-based high throughput dose response assay for inhibitors of bacterial viability. [Related pubchem assays (depositor defined):AID435030, AID449728, AID449731, AID488942, AID488955, AID488956]. It counts as functional.
Data set [21] concerns the target Melanin-concentrating hormone receptor 1 (Homo sapiens, UniProt Q99705). Briefly: Late-stage fluorescence-based counterscreen for antagonists of the G-protein coupled receptor 7 (GPR7): cell-based dose response assay to identify antagonists of the melanin-concentrating hormone receptor 1 (MCHR1). [Related pubchem assays (depositor defined):AID1861, AID1880, AID1952, AID2148, AID2251, AID2257, AID485339]. It counts as functional.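 Note: stimulated with 30 nM MCH peptide agonist.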

The target in data set [22] is T5, Neuropeptides B/W receptor type 1 (Homo sapiens, UniProt P48145).
T5 sequence (P48145 whole entry): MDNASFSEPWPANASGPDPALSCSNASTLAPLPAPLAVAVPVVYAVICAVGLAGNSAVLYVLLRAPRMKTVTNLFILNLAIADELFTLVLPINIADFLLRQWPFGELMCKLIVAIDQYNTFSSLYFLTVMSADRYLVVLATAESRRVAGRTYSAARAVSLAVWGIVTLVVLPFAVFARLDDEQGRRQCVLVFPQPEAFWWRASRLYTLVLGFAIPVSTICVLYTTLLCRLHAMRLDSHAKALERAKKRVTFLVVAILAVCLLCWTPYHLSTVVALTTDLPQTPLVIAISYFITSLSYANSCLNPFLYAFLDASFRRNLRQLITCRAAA
Briefly: GPR7 antagonist potency, late-stage follow-up, cell-based, fluorescence, dose response (AID 463251). The data set is classed as functional.

For data set [23], the target named is T6, Delta-type opioid receptor (Homo sapiens, UniProt P41143). The experiment in a line: HTS Image-Based Screen for Agonists of the DOR Receptor. [Related pubchem assays (depositor defined):AID1777, AID1786, AID2133]. The data set is classed as functional.
Data set [24] has as its target T7, Kappa-type opioid receptor (Homo sapiens, UniProt P41145). It counts as functional.
Data set [25] deals with T7, Kappa-type opioid receptor. It counts as functional. This is another data set of the same source.
A further data set addresses Mu-type opioid receptor (Homo sapiens, UniProt P35372). The experiment in a line: HTS Image-Based Screen for Agonists of the MOR Receptor. [Related pubchem assays (depositor defined):AID1777, AID1785, AID1786, AID2133]. It counts as functional.
The next data set concerns the target Beta-galactosidase (Escherichia coli, UniProt Q8VNN2). It counts as functional.
Data set [26] deals with T6, Delta-type opioid receptor. The experiment in a line: HTS Image-Based Screen for Antagonists of the DOR Receptor. [Related pubchem assays (depositor defined):AID1777, AID1785, AID1786, AID2133]. It counts as functional.

This is an account of results in ChEMBL document CHEMBL1201862, “PubChem BioAssay data set” (2004).

pIC50: −log10 of the molar value. Activity calls are given as the source filed them.
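Throughout, for AC50: CYP2D6 member of a cytochrome P450 panel assay.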

T1 sequence (P10635 whole entry): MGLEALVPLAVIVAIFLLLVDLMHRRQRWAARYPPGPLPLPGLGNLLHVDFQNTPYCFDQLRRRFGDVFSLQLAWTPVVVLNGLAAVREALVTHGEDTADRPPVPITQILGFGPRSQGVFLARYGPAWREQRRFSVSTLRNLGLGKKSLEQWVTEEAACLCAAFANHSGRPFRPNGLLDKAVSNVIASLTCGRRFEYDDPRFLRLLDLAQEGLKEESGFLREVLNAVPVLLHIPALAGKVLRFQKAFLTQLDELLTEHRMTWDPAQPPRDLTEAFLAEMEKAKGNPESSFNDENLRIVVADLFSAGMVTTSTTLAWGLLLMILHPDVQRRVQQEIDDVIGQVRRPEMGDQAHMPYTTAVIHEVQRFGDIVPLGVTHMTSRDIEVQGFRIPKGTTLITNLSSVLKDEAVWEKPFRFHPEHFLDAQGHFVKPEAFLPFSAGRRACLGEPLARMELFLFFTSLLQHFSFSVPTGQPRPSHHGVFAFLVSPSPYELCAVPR
T3 sequence (Q00975 whole entry): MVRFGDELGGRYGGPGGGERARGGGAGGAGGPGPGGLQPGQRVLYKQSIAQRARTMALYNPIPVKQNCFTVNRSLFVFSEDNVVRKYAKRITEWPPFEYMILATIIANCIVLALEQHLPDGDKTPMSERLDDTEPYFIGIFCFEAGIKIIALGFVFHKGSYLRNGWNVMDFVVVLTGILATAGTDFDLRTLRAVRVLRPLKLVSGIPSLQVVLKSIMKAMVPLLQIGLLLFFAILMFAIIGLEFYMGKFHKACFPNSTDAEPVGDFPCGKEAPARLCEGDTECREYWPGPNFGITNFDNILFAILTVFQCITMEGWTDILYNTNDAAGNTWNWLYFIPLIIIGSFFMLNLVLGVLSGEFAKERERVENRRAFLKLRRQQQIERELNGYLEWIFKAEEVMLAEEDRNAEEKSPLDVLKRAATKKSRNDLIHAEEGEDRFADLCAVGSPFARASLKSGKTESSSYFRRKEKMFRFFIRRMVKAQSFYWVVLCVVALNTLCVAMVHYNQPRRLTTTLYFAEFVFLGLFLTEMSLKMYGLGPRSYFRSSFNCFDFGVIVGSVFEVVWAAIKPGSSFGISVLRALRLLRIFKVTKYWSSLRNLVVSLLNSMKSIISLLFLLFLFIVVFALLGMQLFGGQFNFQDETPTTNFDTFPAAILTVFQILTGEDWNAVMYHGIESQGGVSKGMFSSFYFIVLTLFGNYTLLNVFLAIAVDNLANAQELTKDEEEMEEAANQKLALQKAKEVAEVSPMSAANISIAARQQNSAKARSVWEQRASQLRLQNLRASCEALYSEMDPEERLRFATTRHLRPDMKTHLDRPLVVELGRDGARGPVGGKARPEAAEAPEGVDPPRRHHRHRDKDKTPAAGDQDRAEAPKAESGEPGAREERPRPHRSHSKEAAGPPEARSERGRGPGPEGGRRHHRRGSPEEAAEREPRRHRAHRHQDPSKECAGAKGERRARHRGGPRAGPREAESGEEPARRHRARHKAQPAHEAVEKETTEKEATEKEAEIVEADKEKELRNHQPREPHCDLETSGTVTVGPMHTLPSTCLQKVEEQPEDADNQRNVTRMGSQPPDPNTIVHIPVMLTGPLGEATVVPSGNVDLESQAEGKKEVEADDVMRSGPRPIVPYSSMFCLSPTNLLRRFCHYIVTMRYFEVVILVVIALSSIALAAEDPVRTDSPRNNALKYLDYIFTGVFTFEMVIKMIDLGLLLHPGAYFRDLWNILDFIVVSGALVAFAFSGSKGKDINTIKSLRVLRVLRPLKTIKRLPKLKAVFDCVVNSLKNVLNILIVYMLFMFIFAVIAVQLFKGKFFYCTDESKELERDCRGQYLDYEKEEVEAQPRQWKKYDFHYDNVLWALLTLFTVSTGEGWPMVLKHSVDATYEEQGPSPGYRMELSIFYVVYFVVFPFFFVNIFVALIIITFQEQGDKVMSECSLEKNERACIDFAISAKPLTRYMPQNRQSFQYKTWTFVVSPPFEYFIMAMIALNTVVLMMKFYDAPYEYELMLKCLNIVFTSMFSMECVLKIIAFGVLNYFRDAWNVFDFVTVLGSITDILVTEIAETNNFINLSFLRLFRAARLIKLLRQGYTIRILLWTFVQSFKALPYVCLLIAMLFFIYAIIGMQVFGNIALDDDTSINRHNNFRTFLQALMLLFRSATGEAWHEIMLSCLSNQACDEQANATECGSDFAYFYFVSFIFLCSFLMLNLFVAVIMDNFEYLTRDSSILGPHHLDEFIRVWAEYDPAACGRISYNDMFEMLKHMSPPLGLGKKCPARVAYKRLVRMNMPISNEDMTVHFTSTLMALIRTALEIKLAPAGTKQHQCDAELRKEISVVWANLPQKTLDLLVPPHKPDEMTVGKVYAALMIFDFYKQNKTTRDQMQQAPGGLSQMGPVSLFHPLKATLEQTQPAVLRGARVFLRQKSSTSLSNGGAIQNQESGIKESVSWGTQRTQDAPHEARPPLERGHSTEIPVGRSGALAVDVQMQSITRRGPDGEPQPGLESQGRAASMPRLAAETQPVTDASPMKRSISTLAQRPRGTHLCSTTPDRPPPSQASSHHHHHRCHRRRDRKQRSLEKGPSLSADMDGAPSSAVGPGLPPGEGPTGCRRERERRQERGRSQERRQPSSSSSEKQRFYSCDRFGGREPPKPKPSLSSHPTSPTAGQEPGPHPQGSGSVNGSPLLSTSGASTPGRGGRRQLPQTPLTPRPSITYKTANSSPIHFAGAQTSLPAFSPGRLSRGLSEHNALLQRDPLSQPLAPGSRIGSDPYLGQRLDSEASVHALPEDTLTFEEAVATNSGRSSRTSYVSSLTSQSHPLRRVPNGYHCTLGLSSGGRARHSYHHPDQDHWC
T3 sequence (Q02410 whole entry): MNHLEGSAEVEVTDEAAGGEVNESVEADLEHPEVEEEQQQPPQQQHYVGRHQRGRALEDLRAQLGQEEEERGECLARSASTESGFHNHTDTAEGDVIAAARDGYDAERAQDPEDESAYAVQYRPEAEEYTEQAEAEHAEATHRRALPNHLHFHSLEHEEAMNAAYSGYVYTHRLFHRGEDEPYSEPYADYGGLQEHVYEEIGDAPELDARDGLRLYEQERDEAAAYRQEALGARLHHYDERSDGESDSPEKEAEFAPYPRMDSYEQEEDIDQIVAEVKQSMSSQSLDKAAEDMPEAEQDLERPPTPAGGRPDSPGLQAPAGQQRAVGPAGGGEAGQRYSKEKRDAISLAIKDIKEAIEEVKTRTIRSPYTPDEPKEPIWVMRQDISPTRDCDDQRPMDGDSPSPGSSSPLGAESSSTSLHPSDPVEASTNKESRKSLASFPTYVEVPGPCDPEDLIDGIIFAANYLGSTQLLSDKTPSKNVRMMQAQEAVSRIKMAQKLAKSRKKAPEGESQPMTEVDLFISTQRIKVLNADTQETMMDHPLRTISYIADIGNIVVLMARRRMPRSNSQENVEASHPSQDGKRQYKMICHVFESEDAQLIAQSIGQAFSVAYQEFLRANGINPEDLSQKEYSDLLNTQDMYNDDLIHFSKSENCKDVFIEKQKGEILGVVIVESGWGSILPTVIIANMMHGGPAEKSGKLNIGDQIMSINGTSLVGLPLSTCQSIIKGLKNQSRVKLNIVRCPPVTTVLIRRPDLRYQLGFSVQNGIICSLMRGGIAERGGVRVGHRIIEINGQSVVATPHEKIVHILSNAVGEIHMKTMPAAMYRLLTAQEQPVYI
T7 sequence (P41145 whole entry): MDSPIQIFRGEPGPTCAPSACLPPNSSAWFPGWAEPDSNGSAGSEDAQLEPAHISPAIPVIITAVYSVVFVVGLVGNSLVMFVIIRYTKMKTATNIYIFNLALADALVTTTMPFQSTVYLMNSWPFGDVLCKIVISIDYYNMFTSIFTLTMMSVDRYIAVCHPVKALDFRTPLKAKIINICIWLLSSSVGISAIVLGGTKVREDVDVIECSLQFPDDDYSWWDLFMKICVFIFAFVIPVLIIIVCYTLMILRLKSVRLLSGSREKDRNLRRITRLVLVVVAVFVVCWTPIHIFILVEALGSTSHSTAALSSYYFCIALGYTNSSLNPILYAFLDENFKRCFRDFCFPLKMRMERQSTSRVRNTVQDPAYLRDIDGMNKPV
Sequence of Melanin-concentrating hormone receptor 1 (Q99705 whole entry): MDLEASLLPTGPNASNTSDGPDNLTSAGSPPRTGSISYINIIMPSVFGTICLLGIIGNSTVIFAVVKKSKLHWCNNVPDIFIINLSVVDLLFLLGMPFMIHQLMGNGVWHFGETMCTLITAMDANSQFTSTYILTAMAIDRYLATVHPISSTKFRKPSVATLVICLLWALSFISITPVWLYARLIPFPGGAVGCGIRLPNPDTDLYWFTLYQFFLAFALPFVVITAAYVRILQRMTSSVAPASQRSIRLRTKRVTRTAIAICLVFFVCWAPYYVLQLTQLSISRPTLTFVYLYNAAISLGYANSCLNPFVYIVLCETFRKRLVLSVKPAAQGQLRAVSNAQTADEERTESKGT
T6 sequence (P41143 whole entry): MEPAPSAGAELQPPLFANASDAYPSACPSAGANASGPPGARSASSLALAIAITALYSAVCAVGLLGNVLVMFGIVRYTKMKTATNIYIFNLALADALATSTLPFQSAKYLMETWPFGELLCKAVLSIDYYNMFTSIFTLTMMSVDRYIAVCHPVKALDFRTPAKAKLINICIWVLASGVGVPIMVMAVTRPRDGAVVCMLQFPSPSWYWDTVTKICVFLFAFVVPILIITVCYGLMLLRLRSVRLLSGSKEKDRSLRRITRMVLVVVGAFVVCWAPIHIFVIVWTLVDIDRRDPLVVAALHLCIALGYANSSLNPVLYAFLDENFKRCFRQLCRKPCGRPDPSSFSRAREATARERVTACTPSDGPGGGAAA
Sequence of Eukaryotic translation initiation factor 4E (P63073 whole entry): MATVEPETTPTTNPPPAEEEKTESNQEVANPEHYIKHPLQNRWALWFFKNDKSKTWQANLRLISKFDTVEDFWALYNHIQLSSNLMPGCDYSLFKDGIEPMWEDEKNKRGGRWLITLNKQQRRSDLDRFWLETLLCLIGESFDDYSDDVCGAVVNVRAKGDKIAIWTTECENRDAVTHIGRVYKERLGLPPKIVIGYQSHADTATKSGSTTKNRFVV

On to `O=C(NCc1cccnc1)c1ccc(NC(=O)c2cccc([N+](=O)[O-])c2)cc1`, for which the EC50 with BJ [1] is 36 µM (active); in the data set on BJ [2], 19.3 µM (active); in data set [4] it was > 150 µM (not active); in the data set on BJ [5], 2.19 µM (inconclusive); with BJ [6] it was 27.4 µM (active). Besides, the IC50 was > 16 µM (inactive) in [3] and 0.576 µM (active) in [7].

Take `CC(=O)Oc1cc(C(C)C)c(OCCN(C)C)cc1C` [MOXISYLYTE]: the AC50 at Cytochrome P450 2D6 [8] and at Cytochrome P450 2D6 [9] was 10 µM (inconclusive) in each case.

For the compound `COc1ccc(-c2ccoc2)cc1[C@H]1[C@H]2C=CC[C@@H](C)[C@@H]2C(=O)N1Cc1ccccc1`, the IC50 in data set [10] is > 80 µM (inactive).

In the case of `CC(=O)N1c2ccc(S(=O)(=O)CCC(=O)O)cc2CC1C` (stereo unspecified), the AC50 entry at Cytochrome P450 2D6 [9] is reported as “inconclusive”.

With `COc1ccccc1/C=C1\SC(=S)N(CCC(=O)NC2=NCCS2)C1=O`, in [10], the IC50 is > 80 µM (inactive).

As to `CCOC(=O)c1cc2n(c1N)-c1ccccc1C2=O`, on Troponin, cardiac muscle, the EC50 is 24.4 µM (inactive).

For the compound `N#Cc1cccc(/N=c2\ssnc2Cl)c1`, the IC50 in data set [11] is > 100 µM (inactive); in [12], 26.7 µM (active); in data set [13], 11.3 µM (active); in data set [14], 50 µM (inactive); in data set [15], 7.4 µM (active); in data set [16], 10.9 µM (active).

On to `Nc1ccc2[nH]c(-c3ccc(N)c(Cl)c3)nc2c1`, for which the IC50 is 35.6 µM (active) in data set [13] and 4.1 µM (active) in [16].

Regarding `CCN(CC)c1ccc(-c2sc(Nc3ccccc3)n[n+]2-c2ccc(F)cc2)cc1`, the CC50 in [17] was 26.4 µM (active). For the same compound, the IC50 in “cells” was 14 µM (active); in [18] it was 0.626 µM (active). Also, the EC50 in data set [19] was > 104 µM (inactive).

Take `COc1ccc(Nc2nnc(SCc3cn4c(C)cccc4n3)s2)cc1`: the IC50 (at Exodeoxyribonuclease V; in data set [20]) was > 119 µM (inactive) each time.

For `COc1ccc(Oc2c(N3CCCCC3)cnn(-c3ccc(C(C)C)cc3)c2=O)cc1`, the results for the IC50 in data set [21] and in data set [22] were 5.7 µM (active) and > 20 µM (inactive), respectively.

`COc1ccc(Oc2c(-c3ccccc3)cnn(-c3ccc(C)cc3)c2=O)cc1`: the IC50 was 20 µM (inactive) in [21] and > 20 µM (inactive) in data set [22].

As to `COc1ccccc1/N=c1\scc(-c2ccc3c(c2)NC(=O)CO3)n1CC1CCCO1` (stereo unspecified), the figures for the EC50 (in data set [23]; on Mu-type opioid receptor; on Beta-galactosidase) were > 32 µM (inactive), > 32 µM (inactive) and > 31.5 µM (inactive), respectively. In [24], this compound showed a pIC50 of less than 4.49. Further, the IC50 in [25] is 5.52 µM (active); in data set [26], > 32 µM (inactive).

In the case of `CCn1cc(C(=O)NCCc2ccccc2)c(=O)c2cc(F)c(N3CCN(C)CC3)cc21`, the IC50 at Exodeoxyribonuclease V is > 118 µM (inactive); in [20] it was 27.1 µM (inactive).

`CCn1nc(C)c(CN2CCc3c([nH]c4ccccc34)C2c2ccc(F)c(OC)c2)c1C` (stereo unspecified): the results for the IC50 in data set [3] and in data set [7] were 13.6 µM (inactive) and 2.29 µM (active), respectively.
